Counter-ions that a name gives are not always drawn. Like-named read-outs stand apart in the source and are kept apart here.
Experiments:
[1] = cited from earlier work
P388 cells = assay: in vitro Antitumor Test on P388 Cells (Mouse Leukemic Cells), MTT, 3 days; format: cell-based; conditions: 72 h, 3 days incubation
Procedure: P388 cells suspended in RPMI1640 medium (manufactured by Sanko Junyaku) containing 10% of fetal calf serum, (100 U/ml) of penicillin, 100 μg/ml of streptomycin, 5×10^-5 M of mercaptoethanol and 1 mM of sodium pyruvate were pipetted into a 96-well U-bottomed microplate at a ratio of 1.25×10^3 cells (0.1 ml) per well and incubated in a incubator containing 5% of carbon dioxide at 37° C. for a day. A compound of the present invention was dissolved in dimethyl sulfoxide to give a concentration of 10^-2 M and then diluted with the 10% fetal calf serum-containing RPMI1640 culture medium to give a concentration of 10^-4 or 10^-5 M. By taking this concentration as the maximal level, threefold serial dilution was effected with the use of the 10% fetal calf serum-containing RPMI1640 culture medium. Then these dilutions were added to the P388 incubation plate as described above at a ratio of 0.1 ml per well followed by incubation in an incubator containing 5% of carbon dioxide at 37° C. for 3 days. After the completion of the incubation, 0.05 ml/well of a 3.3 mg/ml solution of MTT [3-(4,5-dimethylthiazol-2-yl)-2,5-diphenyltetrazolium bromide] was added thereto and the incubation was continued for additional 2 hours. The microplate was centrifuged and the supernatant was aspirated off from each well. Then the formazan thus formed was dissolved in 0.1 ml of dimethyl sulfoxide and the absorbance thereof at 540 nm measured with a microplate reader was taken as an indication of the viable cell count. In accordance with the following formula, the inhibitory ratio was calculated and the 50% inhibitory concentration (IC50) of the test compound was determined: [formula] wherein T means the absorbance of a well containing the test compound; and C means the absorbance of a well containing no test compound.

[2] = test system: M5076 (Mouse Reticulum Cell Sarcoma); assay: in vivo Antitumor Test on M5076 (Mouse Reticulum Cell Sarcoma) transplanted in BDF1 mice; conditions: M5076, ip, 504 h, i.p.; for survival rate on day 21 at 25 mg/kg / inhibition in vivo at 25 mg/kg: 25 mg/kg/day, d9 after transplantation
Procedure: M5076 cells (1×10^6 /animal) were subcutaneously transplanted into the side part of each BDF1 mouse (aged 6 to 7 weeks, female). A compound of the present invention was dissolved in a 5% solution of glucose. From the next day of the transplantation, the solution of the compound was intraperitoneally administered to the animals once a day in accordance with each schedule. On the other hand, a 5% solution of glucose was administered to the control group. The control group had 10 animals, while each test group had 5 animals.
On the 21st day after the transplantation, tumors were taken out and weighed. The tumor multiplication inhibitory ratio of each test group to the control group was determined in accordance with the following formula: [formula] wherein T means the average tumor weight of the test group; and C means the average tumor weight of the control group.

[3] = test system: MX-1 (Human Mammary Cancer); assay: in vivo Antitumor Test on MX-1 (Human Mammary Cancer) transplanted in nude mice; conditions: Mus musculus, ip, 528 h, i.p.; for responders at 25 mg/kg / inhibition in vivo at 25 mg/kg: 25 mg/kg/day
Procedure: MX-1 tumor pieces (about 1 mm^3) were subcutaneously transplanted into the side part of each nude mouse (BALB/C.nu/nu, 6 to 7 weeks, female). A compound of the present invention was dissolved in a 5% solution of glucose. When the tumor volume reached 50 mm^3 (on the about 10th day after the transplantation), the solution of the compound was intraperitoneally administered to the animals once a day in accordance with each schedule. On the other hand, a 5% solution of glucose was administered to the control group. The control group had 10 animals, while each test group had 5 animals. On the 22nd day after the transplantation, tumors were taken out and weighed. The tumor multiplication inhibitory ratio of each test group to the control group was determined in accordance with the following formula: [formula] wherein T means the average tumor weight of the test group; and C means the average tumor weight of the control group.

[4] = Drugs Fut., 17, 832 (1992), cited from earlier work
[5] = Farmaco, 47, 1035 (1992), J. Med. Chem., 37, 593 (1994)
[6] = read-out: Survival rate on the judgement day (21th day)
[7] = tumor weight day 21, read-out: Proliferation inhibitory ratio (%)
[8] = q7d × 3, read-out: Survival rate on the judgement day (22th day)
[9] = q7d × 3, tumor weight day 22, read-out: Proliferation inhibitory ratio (%)

In the case of “2,3-dihydro-2-[2-(dimethylamino)ethyl]-1H,7H-naphthylidino[3,2,1-ij]quinazoline-1,3,7(2H)-trione”, the “antitumor activity in preclinical tests” value [1, 5] is listed as “only a weak antitumor activity in preclinical tests”.
In the case of `CN(C)CCn1c(=O)c2cccc3c(=O)c4ccccc4n(c1=O)c32` [2-[2-(dimethylamino)ethyl]pyrimid[5,6,1-de]acridine-1,3,7-trione], the “antitumor activity in preclinical tests” value [1, 5] is given as “only a weak antitumor activity in preclinical tests”.
Compound `CN(C)CCn1c(=O)c2cccc3c4c5ccccc5ccc4n(c1=O)c23` [Example 1, 5-[2-(Dimethylamino)ethyl]-4H-benzo[c]pyrimido[5,6,1-jk]carbazole-4,6(5H)-dione hydrochloride] has an IC50 (P388 cells) of 290 nM, a survival rate on day 21 at 50 mg/kg ([2]; 50 mg/kg/day, d1,2,3,4 after transplantation, read-out: Survival rate on the judgement day (21th day)) of 100% and an inhibition in vivo at 50 mg/kg ([2]; 50 mg/kg/day, d1,2,3,4 after transplantation, tumor weight day 21, read-out: Proliferation inhibitory ratio (%)) of 95.2%. It also gave a responders at 25 mg/kg ([3]; q4d × 4, read-out: Survival rate on the judgement day (22th day)) of 100% and an inhibition in vivo at 25 mg/kg ([3]; q4d × 4, tumor weight day 22, read-out: Proliferation inhibitory ratio (%)) of 48%.
For `CC(=O)c1ccc2c(ccc3c2c2cccc4c(=O)n(CCN(C)C)c(=O)n3c42)c1` [Example 2, 11-Acetyl-5-[2-(dimethylamino)ethyl]-4H-benzo[c]pyrimido[5,6,1-jk]carbazole-4,6(5H)-dione hydrochloride], the IC50 (P388 cells) was 70 nM, the survival rate on day 21 at 25 mg/kg [2, 6] was 100% and the inhibition in vivo at 25 mg/kg [2, 7] was 91.4%. It also gave a responders at 25 mg/kg [3, 8] of 100% and an inhibition in vivo at 25 mg/kg [3, 9] of 63.3%.
In the case of `CC(O)c1ccc2c(ccc3c2c2cccc4c(=O)n(CCN(C)C)c(=O)n3c42)c1` (centres unmarked) [Example 3, 5-[2-(Dimethylamino)ethyl]-11-(1-hydroxyethyl)-4H-benzo[c]pyrimido[5,6,1-jk]carbazole-4,6(5H)-dione hydrochloride], the IC50 (P388 cells) is reported as 26 nM, the survival rate on day 21 at 25 mg/kg [2, 6] is reported as 100% and the inhibition in vivo at 25 mg/kg [2, 7] is reported as 90%. It also gave a responders at 20 mg/kg ([3]; 20 mg/kg/day, q7d × 3, read-out: Survival rate on the judgement day (22th day)) of 100% and an inhibition in vivo at 20 mg/kg ([3]; 20 mg/kg/day, q7d × 3, tumor weight day 22, read-out: Proliferation inhibitory ratio (%)) of 55.7%.
With `CN(C)CCn1c(=O)c2cccc3c4c5c(ccc4n(c1=O)c23)C(=O)CCC5` [Example 4, 12,13-Dihydro-5-[2-(dimethylamino)ethyl]-4H-benzo[c]pyrimido[5,6,1-jk]carbazole-4,6,10(5H,11H)-trione hydrochloride] the IC50 (P388 cells) was 30 nM, the survival rate on day 21 at 12.5 mg/kg ([2]; 12.5 mg/kg/day, d1,8,15 after transplantation, read-out: Survival rate on the judgement day (21th day)) was 100% and the inhibition in vivo at 12.5 mg/kg ([2]; 12.5 mg/kg/day, d1,8,15 after transplantation, tumor weight day 21, read-out: Proliferation inhibitory ratio (%)) was 100%. For the same compound, the survival rate on day 21 at 25 mg/kg [2, 6] was 100%, the inhibition in vivo at 25 mg/kg [2, 7] was 89.2% and the responders at 15 mg/kg ([3]; 15 mg/kg/day, q7d × 3, read-out: Survival rate on the judgement day (22th day)) was 100%. The inhibition in vivo at 15 mg/kg ([3]; 15 mg/kg/day, q7d × 3, tumor weight day 22, read-out: Proliferation inhibitory ratio (%)) was 98.4%.
`CN(C)CCn1c(=O)c2cccc3c4c5c(ccc4n(c1=O)c23)C(=O)CO5` [Example 8, 8-[2-(Dimethylamino)ethyl]-7H-furo[3,2-c]pyrimido[5,6,1-jk]carbazole-3,7,9(2H,8H)-trione hydrochloride] gave an IC50 (P388 cells) of 340 nM, a survival rate on day 21 at 30 mg/kg ([2]; 30 mg/kg/day, d1,8,15 after transplantation, read-out: Survival rate on the judgement day (21th day)) of 100% and an inhibition in vivo at 30 mg/kg ([2]; 30 mg/kg/day, d1,8,15 after transplantation, tumor weight day 21, read-out: Proliferation inhibitory ratio (%)) of 99.9%. For the same compound, the responders at 25 mg/kg [3, 8] was 100% and the inhibition in vivo at 25 mg/kg [3, 9] was 94%.
In the case of `CN(C)CCN1C(=O)c2cccc3cc(N)cc(c23)C1=O` [amonafide, 5-amino-2-[2-(dimethylamino)ethyl]-1H-benz[de]isoquinoline-1,3(2H)-dione], the “efficacy in clinical tests” value [4] is given as “poor efficacy in clinical tests” and the bone marrow toxicity ([4]; clinical tests) is given as “strong bone marrow toxicity”.
For `CN(C)CCN1C(=O)c2cccc3cc4ccccc4c(c23)C1=O` [azonafide, 2-[2'-(dimethylamino)ethyl]-1,2-dihydro-3H-dibenz(deh)-isoquinoline-1,3-dione], the “antitumor activity in preclinical tests” value ([1]; compared with amonafide, WO9200281) is listed as “enhance the antitumor activity in preclinical tests”.

— US5952335A, “Fused polycyclic heterocycle derivatives” (Eisai Co., Ltd., priority 1995, dated 1999)
